Reference: patent publication US11266701B2, “Synergistic combinations of caffeine, ginkgo biloba and beta-phenylethylamine” (TRINUTRA LTD., priority 2016, dated 2022)

Tested on: murine macrophage cell line, RAW 264.7
Test: Nitric oxide (NO) release from LPS-induced RAW 264.7 cells (Griess Reagent System)
Format: cell-based
Method: 10^5 cells from a murine macrophage cell line, RAW 264.7, were seeded in 96-well plates in a medium containing 1% FBS, 1% Glutamine and 1% Pen/strep in DMEM. […] In addition, positive control cells were treated with 20 μM dexamethasone. Nitric oxide (NO) release was tested after incubation at 37° C., 5% CO2 using the Griess Reagent System. The method is based on the chemical diazotization reaction that was originally described by Griess in 1879, which uses sulfanilamide and N-1-napthylethylenediamine dihydrochloride (NED) under acidic (phosphoric acid) conditions. This system detects NO2^− in a variety of biological and experimental liquid matrices such as tissue culture medium that was tested in this study.

Structure (SMILES)	NO release as % of LPS-only negative control (FIG. 1: 240 μg/ml Ginkgo biloba, 500 μg/ml PEA, tested separately, LPS 5 ng/ml, 22 hours) [%]	NO release as % of LPS-only negative control (FIG. 2: 240 μg/ml Ginkgo biloba, 120 μg/ml PEA, tested separately, LPS 5 ng/ml, 22 hours) [%]	reduction in NO release (FIG. 3: 630 μg/ml PEA alone, C+G+P = 390 μg/ml caffeine + 40 μg/ml Ginkgo biloba + 630 μg/ml PEA) [%]	effect on NO release (FIG. 4: 630 μg/ml PEA alone, binary combination 390 μg/ml caffeine + 630 μg/ml PEA)	NO release inhibition (FIG. 5: 40 μg/ml Ginkgo biloba, 630 μg/ml PEA, separately and as binary combination)	effect on NO release compared with dexamethasone positive control (FIGS. 3-6: 390 μg/ml caffeine, 40 μg/ml Ginkgo biloba, 630 μg/ml PEA)	effect on NO release (FIG. 1: 40 μg/ml caffeine tested separately, LPS 5 ng/ml, 22 hours)	effect on NO release (FIG. 2: 40 μg/ml caffeine tested separately, LPS 5 ng/ml, 22 hours)	effect on NO release (FIG. 3: 390 μg/ml caffeine, 40 μg/ml Ginkgo biloba, tested separately)
NCCc1ccccc1 [PEA, β-phenylethylamine]	~85	95	20	significant reduction	a certain degree of NO release inhibition	considerably less than that seen in the positive control	–	–	–
Cn1c(=O)c2c(ncn2C)n(C)c1=O [caffeine]	–	–	–	–	–	–	essentially without effect	essentially without effect	slight reduction
